Data as given in article PMC9116245, “New 1,2,3-triazole linked ciprofloxacin-chalcones induce DNA damage by inhibiting human topoisomerase I& II and tubulin polymerization” (Journal of Enzyme Inhibition and Medicinal Chemistry, 2022).

Columns and labels:
[1] = tested on: 59 human cancer cell lines; test: NCI one-dose screen, whole panel; type: cell-based; conditions: Homo sapiens, mean over the panel, read-out: Mean Growth Percent
Procedure: (§1) For screening of anticancer properties, all the developed compounds were chosen by the (NCI) for in-vitro antitumor evaluation. The assay was carried out using 59 human cancer cell lines obtained from nine tumour subpanels (breast, ovarian, melanoma, leukaemia, renal, CNS, lung, prostate, and colon cancer cell lines). Compounds were assessed at a 10 µM concentration. […] Also, hybrids 4a, 4b, 4e, 4i and 4j produced significant anti-proliferative effect in several cancer cells, particularly in leukaemia (RPMI-8226) and colon (HCT116) cells with growth percent of 47.87, −14.59, −24.56, −24.42, −15.84, −9.74, −53.36, −10.26, −31.29, and −39.51%, respectively.
(§2) The method description for NCI anticancer screening is provided in detail in the standard NCI-60 testing protocol.

T-47D = test: NCI one-dose screen; type: cell-based; conditions: Homo sapiens, T47D, read-out: Growth Percent
Procedure: as §1, §2

HCT-15 = test: NCI one-dose screen; type: cell-based; conditions: Homo sapiens; HCT-15, 10 µM; read-out: Growth Percent
Procedure: as §1, §2

MOLT-4 = test: NCI one-dose screen; type: cell-based; conditions: Homo sapiens; MOLT-4, 10 µM; read-out: Growth Percent
Procedure: as §1, §2

MCF7 = test: NCI one-dose screen; type: cell-based; conditions: Homo sapiens; MCF7, 10 µM; read-out: Growth Percent
Procedure: as §1, §2

SF-268 = test: NCI one-dose screen; type: cell-based; conditions: Homo sapiens; SF-268, 10 µM; read-out: Growth Percent
Procedure: as §1, §2

SF-295 = test: NCI one-dose screen; type: cell-based; conditions: Homo sapiens; SF-295, 10 µM; read-out: Growth Percent
Procedure: as §1, §2

CAKI-1 = test: NCI one-dose screen; type: cell-based; conditions: Homo sapiens; CAKI-1, 10 µM; read-out: Growth Percent
Procedure: as §1, §2

MALME-3M = test: NCI one-dose screen; type: cell-based; conditions: Homo sapiens, read-out: Growth Percent
Procedure: as §1, §2

NCI-H226 = test: NCI one-dose screen; type: cell-based; conditions: Homo sapiens; NCI-H226, 10 µM; read-out: Growth Percent
Procedure: as §1, §2

SR = test: NCI one-dose screen; type: cell-based; conditions: Homo sapiens, read-out: Growth Percent
Procedure: as §1, §2

SNB-75 = test: NCI one-dose screen; type: cell-based; conditions: Homo sapiens; SNB-75, 10 µM; read-out: Growth Percent
Procedure: as §1, §2

786-0 = test: NCI one-dose screen; type: cell-based; conditions: Homo sapiens; 786-0, 10 µM; read-out: Growth Percent
Procedure: as §1, §2

A549/ATCC = test: NCI one-dose screen; type: cell-based; conditions: Homo sapiens, read-out: Growth Percent
Procedure: as §1, §2

DU-145 = test: NCI one-dose screen; type: cell-based; conditions: Homo sapiens; DU-145, 10 µM; read-out: Growth Percent
Procedure: as §1, §2

RXF 393 = test: NCI one-dose screen; type: cell-based; conditions: Homo sapiens; RXF 393, 10 µM; read-out: Growth Percent
Procedure: as §1, §2

SK-OV-3 = test: NCI one-dose screen; type: cell-based; conditions: Homo sapiens; SK-OV-3, 10 µM; read-out: Growth Percent
Procedure: as §1, §2

U251 = test: NCI one-dose screen; type: cell-based; conditions: Homo sapiens, U-251; U251, 10 µM; read-out: Growth Percent
Procedure: as §1, §2

SNB-19 = test: NCI one-dose screen; type: cell-based; conditions: Homo sapiens; SNB-19, 10 µM; read-out: Growth Percent
Procedure: as §1, §2

LOX IMVI = test: NCI one-dose screen; type: cell-based; conditions: Homo sapiens, read-out: Growth Percent
Procedure: as §1, §2

UACC-257 = test: NCI one-dose screen; type: cell-based; conditions: Homo sapiens; UACC-257, 10 µM; read-out: Growth Percent
Procedure: as §1, §2

TK-10 = test: NCI one-dose screen; type: cell-based; conditions: Homo sapiens; TK-10, 10 µM; read-out: Growth Percent
Procedure: as §1, §2

BT-549 = test: NCI one-dose screen; type: cell-based; conditions: Homo sapiens; BT-549, 10 µM; read-out: Growth Percent
Procedure: as §1, §2

K-562 = test: NCI one-dose screen; type: cell-based; conditions: Homo sapiens, K562; K-562, 10 µM; read-out: Growth Percent
Procedure: as §1, §2

OVCAR-3 = test: NCI one-dose screen; type: cell-based; conditions: Homo sapiens; OVCAR-3, 10 µM; read-out: Growth Percent
Procedure: as §1, §2

NCI-H23 = test: NCI one-dose screen; type: cell-based; conditions: Homo sapiens; NCI-H23, 10 µM; read-out: Growth Percent
Procedure: as §1, §2

MDA-MB-468 = test: NCI one-dose screen; type: cell-based; conditions: Homo sapiens; MDA-MB-468, 10 µM; read-out: Growth Percent
Procedure: as §1, §2

NCI/ADR-RES = test: NCI one-dose screen; type: cell-based; conditions: Homo sapiens, read-out: Growth Percent
Procedure: as §1, §2

SK-MEL-28 = test: NCI one-dose screen; type: cell-based; conditions: Homo sapiens; SK-MEL-28, 10 µM; read-out: Growth Percent
Procedure: as §1, §2

COLO 205 = test: NCI one-dose screen; type: cell-based; conditions: Homo sapiens; COLO 205, 10 µM; read-out: Growth Percent
Procedure: as §1, §2

Caco-2 = test: MTT assay; type: cell-based; conditions: Homo sapiens; Caco-2, MTT assay, 24 h incubation
Procedure: (§3) The proliferation of colorectal cancer cells (HCT116, HT29 and Caco-2) was assessed using MTT assay as previously reported. Cells were treated with increasing concentrations of 1, 5, 10, 20, 40, 80 or 100 µM of CP hybrids 4a-j, doxorubicin, or DMSO. See Supplementary Appendix A.

HT-29 = test: MTT assay; type: cell-based; conditions: Homo sapiens; HT-29, MTT assay, 24 h incubation
Procedure: as §3

HCT116 = test: MTT assay; type: cell-based; conditions: Homo sapiens, HCT-116, 24 h incubation
Procedure: as §3

HCT-116 = test: NCI one-dose screen; type: cell-based, human; conditions: Homo sapiens; HCT-116, 10 µM; read-out: Growth Percent
Procedure: as §1, §2

RPMI-8226 = test: NCI one-dose screen; type: cell-based, human; conditions: Homo sapiens; RPMI-8226, 10 µM; read-out: Growth Percent
Procedure: as §1, §2

| Compound | activity at 10 µM [1] [%] | activity at 10 µM (T-47D) [%] | activity at 10 µM (HCT-15) [%] | activity at 10 µM (MOLT-4) [%] | activity at 10 µM (MCF7) [%] | activity at 10 µM (SF-268) [%] | activity at 10 µM (SF-295) [%] | activity at 10 µM (CAKI-1) [%] | activity at 10 µM (MALME-3M) [%] | activity at 10 µM (NCI-H226) [%] | activity at 10 µM (SR) [%] | activity at 10 µM (SNB-75) [%] | activity at 10 µM (786-0) [%] | activity at 10 µM (A549/ATCC) [%] | activity at 10 µM (DU-145) [%] | activity at 10 µM (RXF 393) [%] | activity at 10 µM (SK-OV-3) [%] | activity at 10 µM (U251) [%] | activity at 10 µM (SNB-19) [%] | activity at 10 µM (LOX IMVI) [%] | other results |
| --- | --- | --- | --- | --- | --- | --- | --- | --- | --- | --- | --- | --- | --- | --- | --- | --- | --- | --- | --- | --- | --- |
| O=C(/C=C/c1ccc(Br)cc1)c1ccc(-n2cc(CN3CCN(c4cc5c(cc4F)c(=O)c(C(=O)O)cn5C4CC4)CC3)nn2)cc1 [Compound 4d, (E)-7-(4-((1-(4-(3-(4-bromophenyl)acryloyl)phenyl)-1H-1,2,3-triazol-4-yl)methyl)piperazin-1-yl)-1-cyclopropyl-6-fluoro-4-oxo-1,4-dihydroquinoline-3-carboxylic acid] | 77.4 | 101 | 90.6 | 80.4 | 61.4 | 77.2 | 81.9 | 68.7 | 87.7 | 74.8 | 21.3 | 85.7 | 72.2 | 90.5 | 92.3 | 55.7 | 79 | 68.4 | 76.7 | 55.7 | activity at 10 µM (UACC-257): 90.1%; activity at 10 µM (TK-10): 97.8%; activity at 10 µM (BT-549): 92.5%; activity at 10 µM (K-562): 60.7%; activity at 10 µM (OVCAR-3): 84.9%; activity at 10 µM (NCI-H23): 77.6%; activity at 10 µM (MDA-MB-468): 72.5%; activity at 10 µM (NCI/ADR-RES): 85.6%; activity at 10 µM (SK-MEL-28): 92%; activity at 10 µM (COLO 205): 112%; IC50 (Caco-2): 7.19 ± 1.69 µM; IC50 (HT-29): 62.5 ± 7.1 µM; IC50 (HCT116): 8.67 ± 2.15 µM; activity at 10 µM (HCT-116): 17.3%; activity at 10 µM (RPMI-8226): 6.02% |
| Cc1ccc(/C=C/C(=O)c2ccc(-n3cc(CN4CCN(c5cc6c(cc5F)c(=O)c(C(=O)O)cn6C5CC5)CC4)nn3)cc2)cc1 [Compound 4f, (E)-1-cyclopropyl-6-fluoro-4-oxo-7-(4-((1-(4-(3-(p-tolyl)acryloyl)phenyl)-1H-1,2,3-triazol-4-yl)methyl)piperazin-1-yl)-1,4-dihydroquinoline-3-carboxylic acid] | 80.3 | 80 | 95 | 67.7 | 64.8 | 72.6 | 87.6 | 64.4 | 102 | 84.5 | 16.6 | 93.6 | 76.7 | 87.3 | 78.9 | 88.4 | 78.4 | 71.2 | 86.9 | 50.4 | activity at 10 µM (UACC-257): 95.8%; activity at 10 µM (TK-10): 91.4%; activity at 10 µM (BT-549): 81.3%; activity at 10 µM (K-562): 51.5%; activity at 10 µM (OVCAR-3): 95.9%; activity at 10 µM (NCI-H23): 85.4%; activity at 10 µM (MDA-MB-468): 92.2%; activity at 10 µM (NCI/ADR-RES): 102%; activity at 10 µM (SK-MEL-28): 107%; activity at 10 µM (COLO 205): 107%; IC50 (Caco-2): 10.1 ± 2.82 µM; IC50 (HT-29): 14.7 ± 1.81 µM; IC50 (HCT116): 7.22 ± 1.45 µM; activity at 10 µM (HCT-116): 7.82%; activity at 10 µM (RPMI-8226): 34.2% |
| CN(C)c1ccc(/C=C/C(=O)c2ccc(-n3cc(CN4CCN(c5cc6c(cc5F)c(=O)c(C(=O)O)cn6C5CC5)CC4)nn3)cc2)cc1 [Compound 4h, (E)-1-cyclopropyl-7–(4-((1–(4-(3-(4-(dimethylamino)phenyl)acryloyl)phenyl)-1H-1,2,3-triazol-4-yl)methyl)piperazin-1-yl)-6-fluoro-4-oxo-1,4-dihydroquinoline-3-carboxylic acid] | 82 | 86.7 | 97.6 | 86 | 59.2 | 71.5 | 86.9 | 69.8 | 96 | 84.6 | 63.2 | 70.8 | 65 | 93.5 | 96.3 | 70.9 | 84.7 | 73 | 86.4 | 56.9 | activity at 10 µM (UACC-257): 101%; activity at 10 µM (TK-10): 104%; activity at 10 µM (BT-549): 73.7%; activity at 10 µM (K-562): 86%; activity at 10 µM (OVCAR-3): 96%; activity at 10 µM (NCI-H23): 81.5%; activity at 10 µM (MDA-MB-468): 77.1%; activity at 10 µM (NCI/ADR-RES): 103%; activity at 10 µM (SK-MEL-28): 100%; activity at 10 µM (COLO 205): 101%; IC50 (Caco-2): 6.39 ± 1.41 µM; IC50 (HT-29): 21.7 ± 2.74 µM; IC50 (HCT116): 5.09 ± 2.74 µM; activity at 10 µM (HCT-116): 8.04%; activity at 10 µM (RPMI-8226): 44.3% |
| O=C(/C=C/c1ccc(Cl)cc1)c1ccc(-n2cc(CN3CCN(c4cc5c(cc4F)c(=O)c(C(=O)O)cn5C4CC4)CC3)nn2)cc1 [Compound 4c, (E)-7-(4-((1-(4-(3-(4-chlorophenyl)acryloyl)phenyl)-1H-1,2,3-triazol-4-yl)methyl)piperazin-1-yl)-1-cyclopropyl-6-fluoro-4-oxo-1,4-dihydroquinoline-3-carboxylic acid] | 73.9 | 92.9 | 91.6 | 84.1 | 58.2 | 70.4 | 91.7 | 61.4 | 91.2 | 73 | 24.1 | 72.3 | 54.2 | 88.9 | 76.3 | 58.3 | 80 | 42.1 | 72 | 36.2 | activity at 10 µM (UACC-257): 91%; activity at 10 µM (TK-10): 83.3%; activity at 10 µM (BT-549): 76.7%; activity at 10 µM (K-562): 56%; activity at 10 µM (OVCAR-3): 91.5%; activity at 10 µM (NCI-H23): 79.7%; activity at 10 µM (MDA-MB-468): 66%; activity at 10 µM (NCI/ADR-RES): 87%; activity at 10 µM (SK-MEL-28): 88.2%; activity at 10 µM (COLO 205): 108%; IC50 (Caco-2): 11.7 ± 2.95 µM; IC50 (HT-29): 15.3 ± 1.54 µM; IC50 (HCT116): 6.45 ± 1.84 µM; activity at 10 µM (HCT-116): 6.95%; activity at 10 µM (RPMI-8226): -0.51% |
